Measurements as given in US20150150822A1, “NOVEL CORE-SHELL NANOPARTICLES FOR ORAL DRUG DELIVERY” (South Dakota State University, priority 2013, published 2015).

Legend:
[1] = cited from earlier work
[2] = Permeability and efflux ratio of saquinavir across Caco-2 cell monolayers; type: in vitro ADME; conditions: human, pH 7.4, Caco-2 monolayer
Experimental: Caco-2 cells (ATCC, Manassas, Va.) were kindly provided by Dr. Gunaje Jayarama (Department of Pharmaceutical Sciences, South Dakota State University, Brookings, S. Dak.) at passage #4. Cells were seeded at 1×10^6 cells onto […]®polyester filter membranes (pore size 0.4 um, growth area 4.67 cm^2) in 6 welled sterile plates ([…]®, Corning Costar Corp., Cambridge, Mass.). The cells were grown in DMEM (4.5 g/L glucose) medium supplemented with 20% FBS, 1% non-essential amino acids, I % L-glutamine, streptomycin (100 μg/ml) and penicillin (100 IU/ml). The cultures were maintained in an atmosphere of 5% CO2 and 95% air, and 95% relative humidity at 37° C. (CO2 incubator, Galaxy 170S). The growth medium was changed every day in the first two weeks followed by three times a week until time of use. When reaching confluency, cells were trypsinized and passage numbers 25-35 were used in the experiments. The cells were allowed to differentiate in the […]® filter membrane during 3 weeks in complete growth medium.
The permeability of saquinavir and saquinavir loaded ZLF nanoparticles were studied across Caco-2 cell monolayers in an absorptive direction apical to basolateral (AP-BL) or secretory direction basolateral to apical (BL-AP). Before the permeability experiments, the cell monolayers were rinsed twice with HBSS, pH 7.4, and equilibrated under experimental conditions for 20 min. Then, the apical fluid was replaced by 1.5 ml of experimental solution. Transepithelial electrical resistance (TEER) was measured using an EVOM meter (World Precision Instruments, Inc., Sarasota, Fla.) to ensure monolayer confluence and integrity. TEER was calculated as follows: […]
Where R(Ω) is the measured resistance and A is the surface area (cm^2). […] Results are expressed as apparent permeability coefficient (Papp), calculated according to: […]
Saquinavir content after extraction was analyzed in the samples using the HPLC as recited herein. […]
The ratio of effective permeability for saquinavir or efflux ratio was calculated as follows: […]

[3] = background statement; cited from earlier work

efflux ratio at 3 h, 20 μM ([2]; Papp B-A/Papp A-B) | Papp A→B at 3 h, 20 μM ([2]; apical to basolateral, free saquinavir at 20 μM) [×10⁻⁶ cm/s] | Papp B→A at 3 h, 20 μM ([2]; basolateral to apical, free saquinavir at 20 μM) [×10⁻⁶ cm/s] | Compound | Log P [1] | solubility in water [1] | bioavailability [3]
– | – | – | CC1=C(/C=C/C(C)=C/C=C/C(C)=C/CO)C(C)(C)CCC1 [Retinol] | 6.2 | practically insoluble in water | –
16.7 | 0.85 ± 0.21 | 14.2 ± 5.3 | CC(C)(C)NC(=O)[C@@H]1C[C@@H]2CCCC[C@@H]2CN1C[C@@H](O)[C@H](Cc1ccccc1)NC(=O)[C@H](CC(N)=O)NC(=O)c1ccc2ccccc2n1 [Saquinavir] | – | – | 0.7-4%
